Data reported in BindingDB's records for doi:10.1021/jm060234e (Scientific Computing, 2006).

Molecular target: T1, Progesterone receptor (Homo sapiens, UniProt P06401)
T1 sequence (P06401 whole entry): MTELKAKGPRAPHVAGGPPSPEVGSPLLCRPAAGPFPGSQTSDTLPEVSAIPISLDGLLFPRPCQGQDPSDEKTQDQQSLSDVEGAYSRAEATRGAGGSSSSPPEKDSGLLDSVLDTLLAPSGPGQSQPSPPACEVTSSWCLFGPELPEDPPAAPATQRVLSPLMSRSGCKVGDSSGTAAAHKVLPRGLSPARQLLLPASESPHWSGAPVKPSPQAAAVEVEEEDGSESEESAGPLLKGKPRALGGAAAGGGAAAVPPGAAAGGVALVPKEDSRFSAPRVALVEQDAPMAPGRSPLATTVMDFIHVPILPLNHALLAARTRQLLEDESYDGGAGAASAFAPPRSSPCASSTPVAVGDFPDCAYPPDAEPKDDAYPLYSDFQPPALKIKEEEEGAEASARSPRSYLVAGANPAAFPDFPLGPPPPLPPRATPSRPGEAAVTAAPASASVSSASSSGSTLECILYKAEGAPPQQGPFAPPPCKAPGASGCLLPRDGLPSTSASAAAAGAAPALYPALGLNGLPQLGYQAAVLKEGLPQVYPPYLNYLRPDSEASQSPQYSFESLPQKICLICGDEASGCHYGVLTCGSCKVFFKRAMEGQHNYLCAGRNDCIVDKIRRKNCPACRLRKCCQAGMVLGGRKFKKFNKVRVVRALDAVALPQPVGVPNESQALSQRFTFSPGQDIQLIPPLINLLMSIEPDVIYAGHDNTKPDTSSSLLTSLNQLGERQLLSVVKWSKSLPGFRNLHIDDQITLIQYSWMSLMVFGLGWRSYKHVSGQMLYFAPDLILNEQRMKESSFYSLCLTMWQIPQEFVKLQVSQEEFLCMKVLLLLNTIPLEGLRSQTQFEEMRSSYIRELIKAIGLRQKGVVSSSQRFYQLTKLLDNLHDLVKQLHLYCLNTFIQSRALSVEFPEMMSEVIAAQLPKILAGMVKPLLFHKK
Assay: Displacement of [3H]progesterone from Progesterone receptor

Ki | SMILES
13 nM | CC1=CC(C)(C)Nc2ccc3c(c21)COc1c(F)cc(F)cc1-3 [7,9-difluoro-2,2,4-trimethyl-2,5-dihydro-1H-chromeno[3,4-f]quinoline]
15 nM | CC1=CC(C)(C)Nc2ccc3c(c21)Cc1c(F)cccc1-3 [10-Fluoro-1,3,3-trimethyl-4,11-dihydro-3H-indeno[2,1-f]quinoline]
